Experimental findings from ChEMBL document CHEMBL1201862, “PubChem BioAssay data set” (2004) are described below.

Common to all, as to experiment: NCI anticancer screen, dose series, 48 h
In experiment [1] the test system is HL-60.
Experiment [2] relates to ACHN.
The test system of experiment [3] is SK-MEL-2.
For experiment [4], the system named is HT-29.
Experiment [5] relates to A549.
Experiment [6] deals with KM12.
For experiment [7], the system named is NCI-H226.
Experiment [8] has as its system SNB-78.
For experiment [9], the system named is CCRF-CEM.
Experiment [10] deals with NCI-H23.
In experiment [11] the test system is SW-620.
The subject of experiment [12] is SK-MEL-5.
Experiment [13] concerns TK-10.
Experiment [14] deals with LOX IMVI.
Experiment [15] deals with SF-295.
For experiment [16], the system named is UACC-257.
The subject of experiment [17] is OVCAR-5.
In experiment [18] the test system is MDA-N.
In experiment [19] the test system is Hs-578T.
The test system of experiment [20] is DU-145.

Each structure is given as a SMILES string.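 1) Cells in 96-well plates. 2) Compound, 48 h, 5 concentrations. 3) Linear interpolation between surrounding doses. 4) Unreached endpoint = highest concentration. At the GI50, growth is halved.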 Active and inactive are the calls of the source. Cut-off read from the data, not from the text of the source: active = GI50 up to about 1.1 µM and inactive = higher.

In the case of `c1ccc(-c2csc3ncn4cnnc4c23)cc1`, the GI50 was 86.1 µM (inactive) in experiment [1]; 33.6 µM (inactive) in [2]; 24.8 µM (inactive) in experiment [3]; > 100 µM (inactive) in [4]; > 100 µM (inactive) in [5]; > 100 µM (inactive) in [6]. Further, the GI50 in [7] is 54.1 µM (inactive); in [8], > 100 µM (inactive); in experiment [9], 85.9 µM (inactive); in experiment [10], 90.2 µM (inactive); in experiment [11] it was > 100 µM (inactive); in experiment [12] it was 58.1 µM (inactive). The GI50 is 84.3 µM (inactive) in [13], 55.8 µM (inactive) in experiment [14] and > 100 µM (inactive) in experiment [15].
Take `COc1nc2c(nc(N)n2C2OC(CO)C(O)C(O)C2O)c(=O)n1C` (configuration not stated): the GI50 in experiment [1], in experiment [16], in experiment [2], in experiment [4], in experiment [5] and in experiment [6] was > 100 µM (inactive) in each case. In addition, the GI50 in experiment [7], in experiment [8], in experiment [9], in experiment [10], in experiment [11] and in [12] was > 100 µM (inactive) each time. The GI50 in experiment [13], in experiment [14] and in experiment [15] was > 100 µM (inactive) in each case.
Consider `O=C1O[C@@H](c2ccc3c(c2)OCO3)C2C(=O)O[C@@H](c3ccc4c(c3)OCO4)C12` (some centres not stated), for which the GI50 in experiment [1], in experiment [16], in experiment [2], in [3], in experiment [4] and in experiment [5] was > 100 µM (inactive) each time. Besides, the GI50 in experiment [6], in [7], in experiment [8], in experiment [9], in experiment [10] and in [11] was > 100 µM (inactive) each time. Besides, the GI50 in experiment [12], in experiment [13], in experiment [14] and in [15] was > 100 µM (inactive) each time.
Turning to `Cc1cccc(NC(=O)CSc2nnc(-c3ccc(/N=C\c4ccc(Cl)cc4)cc3)o2)c1`, the GI50 in [1], in experiment [16], in experiment [2], in experiment [3], in [4] and in [5] was > 100 µM (inactive) throughout. Also, the GI50 in [6], in experiment [7], in [8], in experiment [9], in [10] and in [11] was > 100 µM (inactive) throughout. In addition, the GI50 in experiment [12] is > 100 µM (inactive); in [13], > 100 µM (inactive); in experiment [14], 72.9 µM (inactive); in experiment [15], > 100 µM (inactive).
With `CNC(=S)/N=C(\N)N(C)C`, the GI50 is > 100 µM (inactive) in experiment [1]; > 10 µM (inactive) in [16]; > 100 µM (inactive) in experiment [2]; > 100 µM (inactive) in experiment [4]; > 100 µM (inactive) in experiment [5]; > 100 µM (inactive) in experiment [6]. For the same molecule, the GI50 in [7] was > 100 µM (inactive); in [8], > 100 µM (inactive); in [10], > 10 µM (inactive); in experiment [11], > 100 µM (inactive); in experiment [12], > 100 µM (inactive); in experiment [13], > 100 µM (inactive). In addition, the GI50 in experiment [14] and in [15] was > 100 µM (inactive) throughout.
As to `CCCCCCCCCCCCOC(=S)NCCCC`, the GI50 is 18.5 µM (inactive) in experiment [1]; 16.5 µM (inactive) in experiment [16]; 22.4 µM (inactive) in [2]; 18.7 µM (inactive) in experiment [3]; 19 µM (inactive) in experiment [4]; 20 µM (inactive) in experiment [6]. The GI50 in experiment [7] is 20.1 µM (inactive); in [8], 34.4 µM (inactive); in experiment [9] it was 27.5 µM (inactive); in [10], 23 µM (inactive); in experiment [11], 17.7 µM (inactive); in [13] it was 35.3 µM (inactive). Also, the GI50 in experiment [14] was 17 µM (inactive); in experiment [17], 19.8 µM (inactive); in experiment [15], 36.9 µM (inactive).
`CCOC(=O)NC(=O)c1cn(CCCCCCCCCCC(=O)NCCCN2CCN(CCCNC(=O)CCCCCCCCCCn3cc(C(=O)NC(=O)OCC)c(=O)[nH]c3=O)CC2)c(=O)[nH]c1=O`: the GI50 in [1], in experiment [16], in [2], in experiment [3], in experiment [4] and in experiment [5] was > 100 µM (inactive) throughout. Also, the GI50 in experiment [6], in experiment [8], in [9], in [10], in experiment [11] and in experiment [13] was > 100 µM (inactive) in each case. Further, the GI50 in experiment [14], in experiment [17] and in experiment [15] was > 100 µM (inactive) throughout.
Consider `Nc1nc(-c2ccc(Cl)c([N+](=O)[O-])c2)cs1`, for which the GI50 in [1], in experiment [16], in [2], in [3], in experiment [4] and in experiment [5] was > 100 µM (inactive) in each case. Moreover, the GI50 in experiment [6] was 71 µM (inactive); in [8] it was 52.5 µM (inactive); in experiment [9], > 100 µM (inactive); in experiment [10], 73.5 µM (inactive); in [11], > 100 µM (inactive); in experiment [12], > 100 µM (inactive). Moreover, the GI50 in [13] is > 100 µM (inactive); in [14] it was > 100 µM (inactive); in [17], > 100 µM (inactive); in experiment [15], 45.9 µM (inactive).
Regarding `CCOC(=O)C(C)c1cc(C2(C)OCCO2)c(C)o1` (configuration not stated), the GI50 in [1], in experiment [2], in experiment [3], in experiment [5], in experiment [6] and in experiment [8] was > 100 µM (inactive) each time. For the same molecule, the GI50 in experiment [9], in experiment [10], in experiment [11], in experiment [12], in experiment [13] and in experiment [14] was > 100 µM (inactive) in each case. Besides, the GI50 in experiment [17] and in experiment [15] was > 100 µM (inactive) each time.
With `Cc1ccc(-c2n[nH]c(=O)[nH]2)cc1[N+](=O)[O-]`, the GI50 in [18] is > 100 µM (inactive); in experiment [1], > 100 µM (inactive); in experiment [16], > 100 µM (inactive); in experiment [2], > 100 µM (inactive); in experiment [3] it was > 100 µM (inactive); in experiment [19] it was 3.01 µM (inactive). In addition, the GI50 in experiment [4], in [5], in [6], in experiment [7], in experiment [9] and in experiment [10] was > 100 µM (inactive) throughout. The GI50 in experiment [11], in experiment [20], in [12], in experiment [13], in experiment [14] and in experiment [17] was > 100 µM (inactive) throughout. In [15], the GI50 was > 100 µM (inactive).
For `CCOC(=O)N(c1ccccc1)N(CC)C(=O)/C(C)=N/Nc1ccc([N+](=O)[O-])cc1`, the GI50 was 11 µM (inactive) in experiment [1]; 15 µM (inactive) in experiment [16]; 17.7 µM (inactive) in experiment [2]; 16 µM (inactive) in experiment [3]; 17.1 µM (inactive) in [4]; 16.7 µM (inactive) in experiment [5]. The GI50 was 15.4 µM (inactive) in [6]; 22 µM (inactive) in [7]; 20.8 µM (inactive) in experiment [8]; 17.2 µM (inactive) in experiment [9]; 18 µM (inactive) in experiment [10]; 19.3 µM (inactive) in [11]. For the same molecule, in [15], the GI50 is 16.6 µM (inactive).
As to `c1cc(C2O[C@H]3CCCN3[C@@H]2c2ccncc2)ccn1` (some centres not stated), the GI50 in [16], in experiment [2], in [3], in experiment [4], in experiment [5] and in experiment [6] was > 100 µM (inactive) throughout. For the same molecule, the GI50 in [7], in experiment [8], in [9], in experiment [10], in [11] and in experiment [12] was > 100 µM (inactive) in each case. Moreover, the GI50 in [13], in experiment [14], in experiment [17] and in experiment [15] was > 100 µM (inactive) in each case.
As for `COc1cc([C@@H]2c3cc4c(c(O)c3C[C@H]3COC(=O)[C@@H]32)OCO4)cc(OC)c1O`, the GI50 in experiment [16] was < 0.02 µM (active); in experiment [2] it was 0.00631 µM (active); in [3], 0.027 µM (active); in experiment [4], 0.577 µM (active); in experiment [5], < 0.02 µM (active); in experiment [7], < 0.02 µM (active). For the same molecule, the GI50 is < 0.02 µM (active) in [8]; 0.0853 µM (active) in experiment [10]; < 0.02 µM (active) in experiment [11]; < 0.02 µM (active) in experiment [12]; 0.00762 µM (active) in [13]; 29.2 µM (inactive) in experiment [17]. The GI50 in experiment [15] is < 0.02 µM (active).
